One series deals with tumor. The series can be described thus: Tumor response to paclitaxel treatment, imaged with 99mTc-glycopeptide. The following applies: paclitaxel 40 mg/kg iv. The format is in vivo, rats. The method, then:
To assess anti-angiogenic treatment response, rats were treated with paclitaxel (40 mg/kg,iv), followed by imaging with ^99mTc-glycopeptide on day 4. Tumor uptake and in situ hybridization (ISH) and TUNEL assays were conducted pre- and post-paclitaxel treatment.

Series [1] can be described thus: Renal clearance of pamidronate. The following applies: in vivo.
Another series deals with bone. In words: Bone scintographic imaging studies. The format is in vivo, normal female Fischer 344 rats. The following applies: 99mTc-labeled, 300 μCi, i.v.

The record followed here is patent US9820986B2, “Glycopeptide compositions” (TAIWAN HOPAZ CHEMS, MFG. CO., LTD., priority 2005, dated 2017).

Consider `CC(=O)O[C@H]1C(=O)[C@@]2(C)[C@H]([C@H](OC(=O)c3ccccc3)[C@]3(O)C[C@H](OC(=O)[C@H](O)[C@@H](NC(=O)c4ccccc4)c4ccccc4)C(C)=C1C3(C)C)[C@]1(OC(C)=O)CO[C@@H]1C[C@@H]2O` [paclitaxel], for which, in the series with tumor (day 4, compared to 99mTc-glycopeptide baseline), the tumor progression entry is given as “no marked tumor progression”. The tumor necrosis result with tumor (post-treatment) is listed as “clearly seen”.
`NCCC(O)(P(=O)(O)O)P(=O)(O)O` [Pamidronate]: in series [1], the renal clearance result is reported as “quick renal clearance”. Further, the bone targeting entry in the series on bone is given as “targets bone poorly”.
